Measured values reported in ChEMBL document CHEMBL1667786, “Synthesis and biological evaluation of indole-chalcone derivatives as β-amyloid imaging probe” (Bioorg Med Chem Lett, 2011).
Values belong to the molecule of their own block, whether it stands above or below them. Active and inactive are the calls of the source. No cut-off for these calls is given here.

Columns and labels:
[1] = Displacement of [125I]IMPY from amyloid beta 1 to 42 after 2 hrs
Heart [2] = assay: Biodistribution in ddY mouse heart assessed per gram of tissue at 1 uCi, iv after 30 mins; format: ADME, organism-based; conditions: in vivo, 0.5 h
Stomach [3] = assay: Biodistribution in ddY mouse stomach assessed per gorgan at 1 uCi, iv after 120 mins; format: ADME, organism-based; conditions: in vivo, 2 h
Liver [4] = assay: Biodistribution in ddY mouse liver assessed per gram of tissue at 1 uCi, iv after 120 mins; format: ADME, organism-based; conditions: in vivo, 2 h
Kidney [5] = assay: Biodistribution in ddY mouse kidney assessed per gram of tissue at 1 uCi, iv after 60 mins; format: ADME, organism-based; conditions: in vivo, 1 h
Blood [6] = assay: Biodistribution in ddY mouse blood assessed per gram of tissue at 1 uCi, iv after 60 mins; format: ADME, organism-based; conditions: in vivo, 1 h
Lung [7] = assay: Biodistribution in ddY mouse lung assessed per gram of tissue at 1 uCi, iv after 15 mins; format: ADME, organism-based; conditions: in vivo, 0.25 h
Kidney [8] = assay: Biodistribution in ddY mouse kidney assessed per gram of tissue at 1 uCi, iv after 30 mins; format: ADME, organism-based; conditions: in vivo, 0.5 h
Brain [9] = assay: Biodistribution in ddY mouse brain assessed per gram of tissue at 1 uCi, iv after 30 mins; format: ADME, organism-based; conditions: in vivo, 0.5 h
Spleen [10] = assay: Biodistribution in ddY mouse spleen assessed per gram of tissue at 1 uCi, iv after 30 mins; format: ADME, organism-based; conditions: in vivo, 0.5 h
Blood [11] = assay: Biodistribution in ddY mouse blood assessed per gram of tissue at 1 uCi, iv after 15 mins; format: ADME, organism-based; conditions: in vivo, 0.25 h
Lung [12] = assay: Biodistribution in ddY mouse lung assessed per gram of tissue at 1 uCi, iv after 30 mins; format: ADME, organism-based; conditions: in vivo, 0.5 h
Intestine [13] = assay: Biodistribution in ddY mouse intestine assessed per gram of tissue at 1 uCi, iv after 30 mins; format: ADME, organism-based; conditions: in vivo, 0.5 h
Spleen [14] = assay: Biodistribution in ddY mouse spleen assessed per gram of tissue at 1 uCi, iv after 120 mins; format: ADME, organism-based; conditions: in vivo, 2 h
Liver [15] = assay: Biodistribution in ddY mouse liver assessed per gram of tissue at 1 uCi, iv after 15 mins; format: ADME, organism-based; conditions: in vivo, 0.25 h
Heart [16] = assay: Biodistribution in ddY mouse heart assessed per gram of tissue at 1 uCi, iv after 2 mins; format: ADME, organism-based; conditions: in vivo
Stomach [17] = assay: Biodistribution in ddY mouse stomach assessed per gorgan at 1 uCi, iv after 30 mins; format: ADME, organism-based; conditions: in vivo, 0.5 h
Blood [18] = assay: Biodistribution in ddY mouse blood assessed per gram of tissue at 1 uCi, iv after 30 mins; format: ADME, organism-based; conditions: in vivo, 0.5 h
Heart [19] = assay: Biodistribution in ddY mouse heart assessed per gram of tissue at 1 uCi, iv after 60 mins; format: ADME, organism-based; conditions: in vivo, 1 h
Spleen [20] = assay: Biodistribution in ddY mouse spleen assessed per gram of tissue at 1 uCi, iv after 60 mins; format: ADME, organism-based; conditions: in vivo, 1 h
Liver [21] = assay: Biodistribution in ddY mouse liver assessed per gram of tissue at 1 uCi, iv after 2 mins; format: ADME, organism-based; conditions: in vivo
Blood [22] = assay: Biodistribution in ddY mouse blood assessed per gram of tissue at 1 uCi, iv after 120 mins; format: ADME, organism-based; conditions: in vivo, 2 h
Spleen [23] = assay: Biodistribution in ddY mouse spleen assessed per gram of tissue at 1 uCi, iv after 2 mins; format: ADME, organism-based; conditions: in vivo
Stomach [24] = assay: Biodistribution in ddY mouse stomach assessed per gorgan at 1 uCi, iv after 15 mins; format: ADME, organism-based; conditions: in vivo, 0.25 h
Intestine [25] = assay: Biodistribution in ddY mouse intestine assessed per gram of tissue at 1 uCi, iv after 15 mins; format: ADME, organism-based; conditions: in vivo, 0.25 h
Kidney [26] = assay: Biodistribution in ddY mouse kidney assessed per gram of tissue at 1 uCi, iv after 15 mins; format: ADME, organism-based; conditions: in vivo, 0.25 h
Brain [27] = assay: Biodistribution in ddY mouse brain assessed per gram of tissue at 1 uCi, iv after 120 mins; format: ADME, organism-based; conditions: in vivo, 2 h
Kidney [28] = assay: Biodistribution in ddY mouse kidney assessed per gram of tissue at 1 uCi, iv after 120 mins; format: ADME, organism-based; conditions: in vivo, 2 h
Intestine [29] = assay: Biodistribution in ddY mouse intestine assessed per gram of tissue at 1 uCi, iv after 120 mins; format: ADME, organism-based; conditions: in vivo, 2 h
Lung [30] = assay: Biodistribution in ddY mouse lung assessed per gram of tissue at 1 uCi, iv after 120 mins; format: ADME, organism-based; conditions: in vivo, 2 h
Brain [31] = assay: Biodistribution in ddY mouse brain assessed per gram of tissue at 1 uCi, iv after 2 mins; format: ADME, organism-based; conditions: in vivo
Lung [32] = assay: Biodistribution in ddY mouse lung assessed per gram of tissue at 1 uCi, iv after 60 mins; format: ADME, organism-based; conditions: in vivo, 1 h
Intestine [33] = assay: Biodistribution in ddY mouse intestine assessed per gram of tissue at 1 uCi, iv after 2 mins; format: ADME, organism-based; conditions: in vivo
Brain [34] = assay: Biodistribution in ddY mouse brain assessed per gram of tissue at 1 uCi, iv after 60 mins; format: ADME, organism-based; conditions: in vivo, 1 h
Stomach [35] = assay: Biodistribution in ddY mouse stomach assessed per gorgan at 1 uCi, iv after 2 mins; format: ADME, organism-based; conditions: in vivo
Spleen [36] = assay: Biodistribution in ddY mouse spleen assessed per gram of tissue at 1 uCi, iv after 15 mins; format: ADME, organism-based; conditions: in vivo, 0.25 h
Liver [37] = assay: Biodistribution in ddY mouse liver assessed per gram of tissue at 1 uCi, iv after 60 mins; format: ADME, organism-based; conditions: in vivo, 1 h
Heart [38] = assay: Biodistribution in ddY mouse heart assessed per gram of tissue at 1 uCi, iv after 15 mins; format: ADME, organism-based; conditions: in vivo, 0.25 h
Heart [39] = assay: Biodistribution in ddY mouse heart assessed per gram of tissue at 1 uCi, iv after 120 mins; format: ADME, organism-based; conditions: in vivo, 2 h
Blood [40] = assay: Biodistribution in ddY mouse blood assessed per gram of tissue at 1 uCi, iv after 2 mins; format: ADME, organism-based; conditions: in vivo
Liver [41] = assay: Biodistribution in ddY mouse liver assessed per gram of tissue at 1 uCi, iv after 30 mins; format: ADME, organism-based; conditions: in vivo, 0.5 h
Lung [42] = assay: Biodistribution in ddY mouse lung assessed per gram of tissue at 1 uCi, iv after 2 mins; format: ADME, organism-based; conditions: in vivo
Intestine [43] = assay: Biodistribution in ddY mouse intestine assessed per gram of tissue at 1 uCi, iv after 60 mins; format: ADME, organism-based; conditions: in vivo, 1 h
Kidney [44] = assay: Biodistribution in ddY mouse kidney assessed per gram of tissue at 1 uCi, iv after 2 mins; format: ADME, organism-based; conditions: in vivo
Stomach [45] = assay: Biodistribution in ddY mouse stomach assessed per gorgan at 1 uCi, iv after 60 mins; format: ADME, organism-based; conditions: in vivo, 1 h
Brain [46] = assay: Biodistribution in ddY mouse brain assessed per gram of tissue at 1 uCi, iv after 15 mins; format: ADME, organism-based; conditions: in vivo, 0.25 h
Mus musculus [47] = organism: Mus musculus; assay: Binding affinity to amyloid beta in APP/PS1 transgenic C57 mouse cortex at 1 uM after 10 mins by autoradiography; conditions: tested as the 125I-labelled form
Mus musculus [48] = organism: Mus musculus; assay: Binding affinity to amyloid beta in APP/PS1 transgenic C57 mouse brain at 1 uM after 10 mins by Thioflavin-S fluorescence assay; format: tissue-based; conditions: tested as the 125I-labelled form

Structure (SMILES): O=C(/C=C/c1ccc2[nH]ccc2c1)c1ccc(Br)cc1
Ki [1]: 8.96 nM

Structure (SMILES): O=C(/C=C/c1ccc2[nH]ccc2c1)c1ccc([125I])cc1
Drug uptake (Heart [2]): 1.72 %ID
Drug uptake (Stomach [3]): 1.19 %ID
Drug uptake (Liver [4]): 1.43 %ID
Drug uptake (Kidney [5]): 3.11 %ID
Drug uptake (Blood [6]): 4.15 %ID
Drug uptake (Lung [7]): 4.86 %ID
Drug uptake (Kidney [8]): 3.26 %ID
Drug uptake (Brain [9]): 0.2 %ID
Drug uptake (Spleen [10]): 2.4 %ID
Drug uptake (Blood [11]): 5.7 %ID
Drug uptake (Lung [12]): 4.2 %ID
Drug uptake (Intestine [13]): 2.32 %ID
Drug uptake (Spleen [14]): 1.89 %ID
Drug uptake (Liver [15]): 2.21 %ID
Drug uptake (Heart [16]): 3.27 %ID
Drug uptake (Stomach [17]): 0.85 %ID
Drug uptake (Blood [18]): 4.79 %ID
Drug uptake (Heart [19]): 1.61 %ID
Drug uptake (Spleen [20]): 2.27 %ID
Drug uptake (Liver [21]): 2.69 %ID
Drug uptake (Blood [22]): 3.72 %ID
Drug uptake (Spleen [23]): 3.02 %ID
Drug uptake (Stomach [24]): 1.07 %ID
Drug uptake (Intestine [25]): 2.01 %ID
Drug uptake (Kidney [26]): 4.03 %ID
Drug uptake (Brain [27]): 0.13 %ID
Drug uptake (Kidney [28]): 2.78 %ID
Drug uptake (Intestine [29]): 2.13 %ID
Drug uptake (Lung [30]): 3.19 %ID
Drug uptake (Brain [31]): 0.41 %ID
Drug uptake (Lung [32]): 3.4 %ID
Drug uptake (Intestine [33]): 1.36 %ID
Drug uptake (Brain [34]): 0.21 %ID
Drug uptake (Stomach [35]): 2.01 %ID
Drug uptake (Spleen [36]): 2.96 %ID
Drug uptake (Liver [37]): 1.48 %ID
Drug uptake (Heart [38]): 2.27 %ID
Drug uptake (Heart [39]): 1.33 %ID
Drug uptake (Blood [40]): 8.85 %ID
Drug uptake (Liver [41]): 1.91 %ID
Drug uptake (Lung [42]): 7.33 %ID
Drug uptake (Intestine [43]): 1.72 %ID
Drug uptake (Kidney [44]): 7.3 %ID
Drug uptake (Stomach [45]): 0.96 %ID
Drug uptake (Brain [46]): 0.29 %ID

Structure (SMILES): Nc1ccc(C(=O)/C=C/c2ccc3[nH]ccc3c2)cc1
Ki [1]: > 1010 nM

Structure (SMILES): CN(C)c1ccc(/C=C/C(=O)c2ccc(I)cc2)cc1
Activity [1]: Dose-dependent effect
Ki [1]: 1.97 nM

Structure (SMILES): O=C(/C=C/c1ccc2[nH]ccc2c1)c1ccc(O)cc1
Ki [1]: > 360 nM

Structure (SMILES): CNc1ccc(C(=O)/C=C/c2ccc3[nH]ccc3c2)cc1
Ki [1]: 51.1 nM

Structure (SMILES): CN(C)c1ccc(C(=O)/C=C/c2ccc3[nH]ccc3c2)cc1
Ki [1]: 5.17 nM

Next, values leading:

Ki [1]: 8.52 nM
Structure (SMILES): COc1ccc(C(=O)/C=C/c2ccc3[nH]ccc3c2)cc1

Ki [1]: 8.43 nM
Structure (SMILES): O=C(/C=C/c1ccc2[nH]ccc2c1)c1ccc(Cl)cc1

Activity (Mus musculus [47]): Active
Activity (Mus musculus [48]): Active
Ki [1]: 8.22 nM
Structure (SMILES): O=C(/C=C/c1ccc2[nH]ccc2c1)c1ccc(I)cc1

Ki [1]: 4.46 nM
Structure (SMILES): COc1ccc2cc(C(=O)/C=C/c3ccc4[nH]ccc4c3)ccc2c1

Ki [1]: 35.1 nM
Structure (SMILES): O=C(/C=C/c1ccc2[nH]ccc2c1)c1ccc(F)cc1
